# Results published in ChEMBL document CHEMBL3997822, “Asymmetric total synthesis of tetrahydroprotoberberine derivatives and evaluation of their binding affinities at dopamine receptors” (Bioorg Med Chem Lett, 2017).
# How the values were obtained:
# D(1A) dopamine receptor [1] = target: T1, D(1A) dopamine receptor (Homo sapiens, UniProt P21728); test: Displacement of [3H]SCH23390 from human dopamine D1 receptor after 1 hr
# D(2) dopamine receptor [2] = target: T2, D(2) dopamine receptor (Homo sapiens, UniProt P14416); test: Displacement of [3H]N-methylspiperone from human dopamine D2 receptor after 1 hr
# D(3) dopamine receptor [3] = target: T3, D(3) dopamine receptor (Homo sapiens, UniProt P35462); test: Displacement of [3H]N-methylspiperone from human dopamine D3 receptor after 1 hr
# D(4) dopamine receptor [4] = target: T4, D(4) dopamine receptor (Homo sapiens, UniProt P21917); test: Displacement of [3H]N-methylspiperone from human dopamine D4 receptor after 1 hr
# T4 sequence (P21917 whole entry): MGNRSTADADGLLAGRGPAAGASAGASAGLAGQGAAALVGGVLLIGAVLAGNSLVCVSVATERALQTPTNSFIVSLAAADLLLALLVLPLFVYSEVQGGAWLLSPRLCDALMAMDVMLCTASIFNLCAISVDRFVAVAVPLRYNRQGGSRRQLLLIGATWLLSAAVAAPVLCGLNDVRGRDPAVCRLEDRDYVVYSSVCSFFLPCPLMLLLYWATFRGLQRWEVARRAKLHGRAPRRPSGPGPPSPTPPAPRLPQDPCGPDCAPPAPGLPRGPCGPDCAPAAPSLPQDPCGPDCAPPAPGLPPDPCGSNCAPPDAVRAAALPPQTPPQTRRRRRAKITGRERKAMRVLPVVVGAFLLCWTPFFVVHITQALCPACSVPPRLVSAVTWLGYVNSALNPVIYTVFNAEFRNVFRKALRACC
# D(1B) dopamine receptor [5] = target: T5, D(1B) dopamine receptor (Homo sapiens, UniProt P21918); test: Displacement of [3H]SCH23390 from human dopamine D5 receptor after 1 hr
# D(1A) dopamine receptor [6] = target: T1, D(1A) dopamine receptor; test: Displacement of [3H]SCH23390 from human 3HA-tagged dopamine D1 receptor expressed in HEK293 cells after 1 hr; type: cell-based
# D(4) dopamine receptor [7] = target: T4, D(4) dopamine receptor; test: Displacement of [3H]SCH23390 from human dopamine D4 receptor expressed in HEK293 cells after 1 hr; type: cell-based
# D(3) dopamine receptor [8] = target: T3, D(3) dopamine receptor; test: biochemical
# D(2) dopamine receptor [9] = target: T2, D(2) dopamine receptor; test: Displacement of [3H]SCH23390 from human FLAG-tagged dopamine D2 receptor expressed in HEK293 cells after 1 hr; type: cell-based
# D(1B) dopamine receptor [10] = target: T5, D(1B) dopamine receptor; conditions: hek293
# T5 sequence (P21918 whole entry): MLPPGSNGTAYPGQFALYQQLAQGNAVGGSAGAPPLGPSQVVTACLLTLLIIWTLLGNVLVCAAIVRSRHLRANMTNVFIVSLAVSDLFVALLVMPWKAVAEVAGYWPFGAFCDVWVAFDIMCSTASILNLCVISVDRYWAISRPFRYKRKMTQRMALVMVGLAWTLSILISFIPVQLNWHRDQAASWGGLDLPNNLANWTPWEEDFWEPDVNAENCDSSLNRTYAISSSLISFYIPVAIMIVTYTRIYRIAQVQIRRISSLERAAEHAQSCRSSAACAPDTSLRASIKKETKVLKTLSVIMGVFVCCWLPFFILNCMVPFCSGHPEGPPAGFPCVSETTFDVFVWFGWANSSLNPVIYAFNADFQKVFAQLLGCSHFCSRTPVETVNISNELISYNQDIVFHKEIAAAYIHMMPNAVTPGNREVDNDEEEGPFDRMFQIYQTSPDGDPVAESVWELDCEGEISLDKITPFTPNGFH
# T1 sequence (P21728 whole entry): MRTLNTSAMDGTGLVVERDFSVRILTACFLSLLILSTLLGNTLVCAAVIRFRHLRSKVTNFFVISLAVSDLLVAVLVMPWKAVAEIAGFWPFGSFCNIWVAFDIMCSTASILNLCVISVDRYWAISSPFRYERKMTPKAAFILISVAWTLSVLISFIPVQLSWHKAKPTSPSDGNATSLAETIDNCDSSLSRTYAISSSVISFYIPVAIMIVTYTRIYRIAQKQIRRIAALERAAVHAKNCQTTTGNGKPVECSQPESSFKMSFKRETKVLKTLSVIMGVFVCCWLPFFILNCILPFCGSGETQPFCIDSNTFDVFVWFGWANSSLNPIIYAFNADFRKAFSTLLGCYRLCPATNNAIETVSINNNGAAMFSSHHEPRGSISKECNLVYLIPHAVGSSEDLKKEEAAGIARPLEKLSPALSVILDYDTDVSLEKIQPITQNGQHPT
# T2 sequence (P14416 whole entry): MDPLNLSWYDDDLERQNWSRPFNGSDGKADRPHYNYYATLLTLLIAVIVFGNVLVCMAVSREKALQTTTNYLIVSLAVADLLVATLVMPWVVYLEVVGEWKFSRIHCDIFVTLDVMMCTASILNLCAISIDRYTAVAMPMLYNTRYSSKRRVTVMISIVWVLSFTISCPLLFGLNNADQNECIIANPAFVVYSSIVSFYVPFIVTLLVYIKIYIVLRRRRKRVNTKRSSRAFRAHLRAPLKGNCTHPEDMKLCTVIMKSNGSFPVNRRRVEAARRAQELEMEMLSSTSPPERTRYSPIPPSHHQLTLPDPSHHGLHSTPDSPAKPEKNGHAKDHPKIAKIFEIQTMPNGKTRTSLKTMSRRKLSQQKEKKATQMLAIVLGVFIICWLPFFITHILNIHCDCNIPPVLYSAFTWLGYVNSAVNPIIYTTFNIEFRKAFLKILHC
# T3 sequence (P35462 whole entry): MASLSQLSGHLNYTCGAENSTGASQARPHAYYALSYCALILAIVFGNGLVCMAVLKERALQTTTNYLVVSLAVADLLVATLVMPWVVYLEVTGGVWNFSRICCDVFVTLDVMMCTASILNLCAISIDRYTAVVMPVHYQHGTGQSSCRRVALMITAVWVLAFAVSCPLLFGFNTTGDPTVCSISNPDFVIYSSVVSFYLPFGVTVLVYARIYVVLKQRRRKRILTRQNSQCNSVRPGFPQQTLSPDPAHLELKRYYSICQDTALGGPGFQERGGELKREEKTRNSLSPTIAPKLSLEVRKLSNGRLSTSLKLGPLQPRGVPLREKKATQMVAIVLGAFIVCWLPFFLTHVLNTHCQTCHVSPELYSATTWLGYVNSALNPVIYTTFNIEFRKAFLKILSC
compound,measurement,setting,value
COc1c(O)ccc2c1CN1CCc3cc4c(cc3[C@@H]1C2)OCO4,Ki,D(1A) dopamine receptor [1],6.5 nM
same,Ki,D(2) dopamine receptor [2],49.2 nM
same,Ki,D(3) dopamine receptor [3],82.4 nM
same,Ki,D(4) dopamine receptor [4],1980 nM
same,Ki,D(1B) dopamine receptor [5],15.1 nM
COc1cc2c(cc1O)CCN1Cc3c(ccc(OC)c3OC)C[C@@H]21,Ki,D(1A) dopamine receptor [1],199 nM
same,Ki,D(2) dopamine receptor [2],42.4 nM
same,Ki,D(3) dopamine receptor [3],262 nM
same,Ki,D(4) dopamine receptor [4],> 1000 nM
same,Ki,D(1B) dopamine receptor [5],313 nM
COc1cc2c(cc1O)[C@@H]1Cc3ccc(OC)c(OC)c3CN1CC2,Ki,D(1A) dopamine receptor [6],[…]
same,Ki,D(4) dopamine receptor [7],77.4 nM
same,Ki,D(3) dopamine receptor [8],37.3 nM
COc1cc2c(cc1OC)[C@@H]1Cc3ccc(O)c(OC)c3CN1CC2,Ki,D(1A) dopamine receptor [1],107 nM
same,Ki,D(2) dopamine receptor [2],533 nM
same,Ki,D(3) dopamine receptor [3],1710 nM
same,Ki,D(4) dopamine receptor [4],> 1000 nM
same,Ki,D(1B) dopamine receptor [5],242 nM
COc1ccc2c(c1OC)CN1CCc3cc4c(cc3[C@@H]1C2)OCO4 [CANADINE],Ki,D(1A) dopamine receptor [1],48.6 nM
same,Ki,D(2) dopamine receptor [2],80.2 nM
same,Ki,D(3) dopamine receptor [3],433 nM
same,Ki,D(4) dopamine receptor [4],486 nM
same,Ki,D(1B) dopamine receptor [5],62.1 nM
COc1cc2c(cc1OC)[C@@H]1Cc3ccc(OC)c(OC)c3CN1CC2 [TETRAHYDROPALMATINE],Ki,D(1A) dopamine receptor [6]; hek293,153 nM
same,Ki,D(2) dopamine receptor [9],1120 nM
same,Ki,D(4) dopamine receptor [7],> 1000 nM
same,Ki,D(1B) dopamine receptor [10],305 nM
